US11370776B2, “Sulfonylureas and sulfonylthioureas as NLRP3 inhibitors” (Inflazome Limited, priority 2017, dated 2022)
pIC50: −log10 of the molar value. Structures can show the parent of a compound that is named as a salt.

What follows are molecules tested against NLRP3 (Homo sapiens, UniProt Q96P20) (assay: THP-1 cells pyroptosis assay). Conditions: THP-1 cells, 1.0 μg/ml LPS, nigericin 5 μM, pyroptosis read with resazurin; read-out: THP IC50.
NLRP3, sequence (Q96P20 whole entry): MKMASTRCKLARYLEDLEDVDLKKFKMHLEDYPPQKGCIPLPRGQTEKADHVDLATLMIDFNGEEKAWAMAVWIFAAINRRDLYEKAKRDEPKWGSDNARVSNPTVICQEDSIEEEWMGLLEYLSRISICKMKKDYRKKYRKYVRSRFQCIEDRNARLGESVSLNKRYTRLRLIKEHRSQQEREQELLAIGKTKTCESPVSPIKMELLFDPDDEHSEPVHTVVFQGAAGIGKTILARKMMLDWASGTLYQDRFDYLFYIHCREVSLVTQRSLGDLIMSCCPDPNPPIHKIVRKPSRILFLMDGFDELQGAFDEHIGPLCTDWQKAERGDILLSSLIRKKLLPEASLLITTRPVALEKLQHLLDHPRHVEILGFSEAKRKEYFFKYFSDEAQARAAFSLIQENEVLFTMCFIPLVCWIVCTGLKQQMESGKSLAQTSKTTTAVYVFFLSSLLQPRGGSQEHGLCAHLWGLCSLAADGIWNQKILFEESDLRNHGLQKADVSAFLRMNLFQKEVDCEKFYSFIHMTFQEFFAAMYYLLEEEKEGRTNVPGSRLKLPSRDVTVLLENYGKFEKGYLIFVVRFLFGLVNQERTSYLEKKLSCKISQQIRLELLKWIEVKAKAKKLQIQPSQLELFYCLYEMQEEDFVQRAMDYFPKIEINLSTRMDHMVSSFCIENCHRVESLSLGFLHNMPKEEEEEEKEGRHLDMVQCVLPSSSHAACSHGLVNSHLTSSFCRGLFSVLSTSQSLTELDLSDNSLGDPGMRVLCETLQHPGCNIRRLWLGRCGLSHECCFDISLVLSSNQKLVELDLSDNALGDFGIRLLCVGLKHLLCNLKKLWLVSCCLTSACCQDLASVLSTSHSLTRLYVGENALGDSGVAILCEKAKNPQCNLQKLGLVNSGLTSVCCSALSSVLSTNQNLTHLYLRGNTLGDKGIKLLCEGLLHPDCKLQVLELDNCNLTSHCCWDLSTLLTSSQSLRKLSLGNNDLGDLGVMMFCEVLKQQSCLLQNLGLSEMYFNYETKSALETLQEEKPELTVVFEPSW
Type: cell-based
Set-up: Seed THP-1 cells (25,000 cells/well) containing 1.0 μg/ml LPS; host or cells: THP-1 cells, LPS-primed, nigericin-stimulated
Description: The cells were routinely passaged and grown to confluency (˜10^6 cells/ml). On the day of the experiment, THP-1 cells were harvested and resuspended into RPMI medium (without FBS). The cells were then counted and viability (>90%) checked by Trypan blue (Sigma # T8154). […] To this diluted cell solution was added LPS (Sigma # L4524) to give a 1 μg/ml Final Assay Concentration (FAC). 40 μl of the final preparation was aliquoted into each well of a 96-well plate. The plate thus prepared was used for compound screening. THP-1 Cells Pyroptosis Assay The following method step-by-step assay was followed for compound screening. • 1. […] Add 5 μl nigericin (Sigma # N7143) (FAC 5 μM) to all wells • 5. […] At the end of the incubation period, spin plates at 300×g for 3 mins and remove supernatant • 7. Then add 50 μl of resazurin (Sigma # R7017) (FAC 100 μM resazurin in RPMI medium without FBS) and incubate plates for a further 1-2 hrs at 37° C. and 5% CO2 • 8. […] IC50 data is fitted to a non-linear regression equation (log inhibitor vs response-variable slope 4-parameters) [table]
With `O=C(Nc1c2c(cc3c1CCC3)CCC2)NS(=O)(=O)c1cc(C(F)(F)F)cnn1` [Example 16, N-((1,2,3,5,6,7-Hexahydro-s-indacen-4-yl)carbamoyl)-5-(trifluoromethyl)pyridazine-3-sulfonamide, Potassium Salt] the pIC50 was > 5.00. With `COc1cc(S(=O)(=O)NC(=O)Nc2c3c(cc4c2CCC4)CCC3)c(OC)nn1` [Example 12, N-((1,2,3,5,6,7-Hexahydro-s-indacen-4-yl)carbamoyl)-3,6-di methoxypyridazine-4-sulfonamide, potassium salt] the pIC50 was > 5.92. For `COc1cc(-c2cc(F)cc(C(C)C)c2NC(=O)NS(=O)(=O)c2nccnc2C(F)F)ccn1` [Example 43, 3-(Difluoromethyl)-N-((4-fluoro-2-isopropyl-6-(2-methoxypyridin-4-yl)phenyl)carbamoyl)pyrazine-2-sulfonamide], the pIC50 was > 5.00. For `CCOc1ccncc1S(=O)(=O)NC(=O)Nc1c2c(cc3c1CCC3)CCC2` [Example 32, 4-Ethoxy-N-((1,2,3,5,6,7-hexahydro-s-indacen-4-yl)carbamoyl)pyridine-3-sulfonamide, Potassium Salt], the pIC50 was > 5.00. With `CN(C)c1cnc(S(=O)(=O)NC(=O)Nc2c(-c3ccncc3)cc(F)c3c2CCC3)cn1` [Example 41, 5-(Dimethylamino)-N-((7-fluoro-5-(pyridin-4-yl)-2,3-dihydro-1H-inden-4-yl)carbamoyl)pyrazine-2-sulfonamide] the pIC50 was > 6.10. In the case of `CC(C)c1cc(S(=O)(=O)NC(=O)Nc2c3c(cc4c2CCC4)CCC3)ccn1` [Example 57, N-((1,2,3,5,6,7-Hexahydro-s-indacen-4-yl)carbamoyl)-2-isopropylpyridine-4-sulfonamide, Sodium Salt], the pIC50 was > 6.10. With `CN1CCN(c2cncc(S(=O)(=O)NC(=O)Nc3c4c(cc5c3CCC5)CCC4)n2)CC1` [Example 54, N-((1,2,3,5,6,7-Hexahydro-s-indacen-4-yl)carbamoyl)-6-(4-methylpiperazin-1-yl)pyrazine-2-sulfonamide, Potassium Salt] the pIC50 was > 5.70. For `COc1cc(-c2ccc3c(c2NC(=O)NS(=O)(=O)c2cncc(N(C)C)n2)CCC3)ccn1` [Example 36, 6-(Dimethylamino)-N-((5-(2-methoxypyridin-4-yl)-2,3-dihydro-1H-inden-4-yl)carbamoyl)pyrazine-2-sulfonamide], the pIC50 was > 6.10. For `Cc1nccnc1S(=O)(=O)NC(=O)Nc1c2c(cc3c1CCC3)CCC2` [Example 29, N-((1,2,3,5,6,7-Hexahydro-s-indacen-4-yl)carbamoyl)-3-methylpyrazine-2-sulfonamide, Potassium Salt], the pIC50 was > 5.00. In the case of `NC(=O)c1ccc(S(=O)(=O)NC(=O)Nc2c3c(cc4c2CCC4)CCC3)nn1` [Example 20, 6-(N-((1,2,3,5,6,7-Hexahydro-s-indacen-4-yl)carbamoyl)sulfamoyl) pyridazine-3-carboxamide, potassium salt], the pIC50 was > 5.00. `Cc1ccc(S(=O)(=O)NC(=O)Nc2c3c(cc4c2CCC4)CCC3)nn1` [Example 4, N-((1,2,3,5,6,7-Hexahydro-s-indacen-4-yl)carbamoyl)-6-methylpyridazine-3-sulfonamide, Sodium Salt] was tested, and the pIC50 was > 5.00. `O=C(Nc1c2c(cc3c1CCC3)CCC2)NS(=O)(=O)c1ccc(Cl)nn1` [Example 11, 6-Chloro-N-((1,2,3,5,6,7-hexahydro-s-indacen-4-yl)carbamoyl) pyridazine-3-sulfonamide, Potassium Salt] was tested, and the pIC50 was > 5.00. With `Cc1nn(C)c2ncc(S(=O)(=O)NC(=O)Nc3c4c(cc5c3CCC5)CCC4)cc12` [Example 31, N-((1,2,3,5,6,7-Hexahydro-s-indacen-4-yl)carbamoyl)-1,3-dimethyl-1H-pyrazolo[3,4-b]pyridine-5-sulfonamide, Potassium Salt] the pIC50 was > 5.00. In the case of `COc1cc(S(=O)(=O)NC(=O)Nc2c3c(cc4c2CCC4)CCC3)ncn1` [Example 19, N-((1,2,3,5,6,7-Hexahydro-s-indacen-4-yl)carbamoyl)-6-methoxypyrimidine-4-sulfonamide, Potassium Salt], the pIC50 was > 6.10.
